Measured values from ChEMBL document CHEMBL1909046, “DrugMatrix in vitro pharmacology data”.

Tests used:
[1] = molecular target: T1, Muscarinic acetylcholine receptor M2 (Homo sapiens, UniProt P08172); type: cell membranes, CHO-K1, Membrane; details: cho-k1; also: in other assays of this panel Not Active means under 50% inhibition at 10 µM
T1 sequence (P08172 whole entry): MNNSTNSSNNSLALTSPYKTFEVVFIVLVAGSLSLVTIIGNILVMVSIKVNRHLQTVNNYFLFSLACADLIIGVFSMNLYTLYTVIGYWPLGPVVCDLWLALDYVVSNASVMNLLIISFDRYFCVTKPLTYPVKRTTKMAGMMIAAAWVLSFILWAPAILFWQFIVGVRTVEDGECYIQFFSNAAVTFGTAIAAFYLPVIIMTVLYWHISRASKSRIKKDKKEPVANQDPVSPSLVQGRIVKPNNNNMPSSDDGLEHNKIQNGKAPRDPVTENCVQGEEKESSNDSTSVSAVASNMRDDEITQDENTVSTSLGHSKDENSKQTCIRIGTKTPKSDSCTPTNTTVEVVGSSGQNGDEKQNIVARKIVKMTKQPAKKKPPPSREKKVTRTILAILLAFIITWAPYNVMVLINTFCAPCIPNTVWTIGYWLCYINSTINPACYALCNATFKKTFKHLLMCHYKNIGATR

[2] = molecular target: cGMP-specific 3',5'-cyclic phosphodiesterase (Homo sapiens, UniProt O76074); experiment: DRUGMATRIX: Phosphodiesterase PDE5 enzyme inhibition (substrate: [3H]cGMP + cGMP); type: tissue-based; details: platelet; Not Active = under 50% inhibition at 10 µM
Progesterone receptor = molecular target: T2, Progesterone receptor (Bos taurus, UniProt Q690N0); experiment: DRUGMATRIX: Progesterone radioligand binding (ligand: [3H] R-5020); type: tissue-based, Uterus; details: Not Active = under 50% inhibition at 10 µM; for Ki: read-out: Ki
T2 sequence (Q690N0 whole entry): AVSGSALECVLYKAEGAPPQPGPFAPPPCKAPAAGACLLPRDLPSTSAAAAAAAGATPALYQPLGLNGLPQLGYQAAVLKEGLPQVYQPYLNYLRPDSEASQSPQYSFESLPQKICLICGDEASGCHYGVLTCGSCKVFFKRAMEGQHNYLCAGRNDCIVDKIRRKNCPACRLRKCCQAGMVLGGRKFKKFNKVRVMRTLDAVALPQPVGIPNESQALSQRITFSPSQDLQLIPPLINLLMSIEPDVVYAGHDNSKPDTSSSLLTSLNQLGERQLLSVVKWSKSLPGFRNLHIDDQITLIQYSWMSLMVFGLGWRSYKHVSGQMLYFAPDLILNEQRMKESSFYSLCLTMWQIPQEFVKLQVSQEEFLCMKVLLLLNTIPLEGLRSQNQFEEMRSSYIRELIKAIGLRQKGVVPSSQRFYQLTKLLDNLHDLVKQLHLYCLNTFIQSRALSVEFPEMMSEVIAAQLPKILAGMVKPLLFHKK

Cannabinoid receptor 1 = Cannabinoid receptor 1 (Homo sapiens, UniProt P21554); type: cell membranes, Chem-1, Membrane; details: chem-1; also: in other assays of this panel Not Active means under 50% inhibition at 10 µM
Sequence of Cannabinoid receptor 1 (P21554 whole entry): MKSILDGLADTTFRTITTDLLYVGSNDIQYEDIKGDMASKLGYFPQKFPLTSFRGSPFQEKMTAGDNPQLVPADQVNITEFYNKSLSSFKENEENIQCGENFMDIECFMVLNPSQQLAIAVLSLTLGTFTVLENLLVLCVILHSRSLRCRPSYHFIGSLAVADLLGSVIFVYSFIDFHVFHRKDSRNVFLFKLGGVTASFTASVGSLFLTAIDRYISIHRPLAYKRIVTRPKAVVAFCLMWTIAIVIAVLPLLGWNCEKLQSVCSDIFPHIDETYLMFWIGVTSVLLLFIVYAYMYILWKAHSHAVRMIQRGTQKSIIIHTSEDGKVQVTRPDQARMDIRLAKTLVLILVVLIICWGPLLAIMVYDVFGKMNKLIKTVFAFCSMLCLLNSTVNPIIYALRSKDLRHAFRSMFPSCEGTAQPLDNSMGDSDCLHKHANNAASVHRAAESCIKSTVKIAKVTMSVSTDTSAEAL

Melanocortin receptor 3 = Melanocortin receptor 3 (Homo sapiens, UniProt P41968); type: cell membranes, Membrane; details: hek293; also: in other assays of this panel Not Active means under 50% inhibition at 10 µM
Sequence of Melanocortin receptor 3 (P41968 whole entry): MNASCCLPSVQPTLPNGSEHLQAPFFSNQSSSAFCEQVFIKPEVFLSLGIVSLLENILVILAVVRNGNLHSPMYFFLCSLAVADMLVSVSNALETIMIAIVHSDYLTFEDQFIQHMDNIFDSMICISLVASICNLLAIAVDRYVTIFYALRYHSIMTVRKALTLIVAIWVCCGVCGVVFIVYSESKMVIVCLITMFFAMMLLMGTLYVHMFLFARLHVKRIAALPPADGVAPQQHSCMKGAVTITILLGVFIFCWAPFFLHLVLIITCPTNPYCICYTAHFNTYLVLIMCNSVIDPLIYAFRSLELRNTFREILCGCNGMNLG

Substance-K receptor = molecular target: T3, Substance-K receptor (Homo sapiens, UniProt P21452); type: cell membranes, CHO, Membrane; details: cho; also: in other assays of this panel Not Active means under 50% inhibition at 10 µM
T3 sequence (P21452 whole entry): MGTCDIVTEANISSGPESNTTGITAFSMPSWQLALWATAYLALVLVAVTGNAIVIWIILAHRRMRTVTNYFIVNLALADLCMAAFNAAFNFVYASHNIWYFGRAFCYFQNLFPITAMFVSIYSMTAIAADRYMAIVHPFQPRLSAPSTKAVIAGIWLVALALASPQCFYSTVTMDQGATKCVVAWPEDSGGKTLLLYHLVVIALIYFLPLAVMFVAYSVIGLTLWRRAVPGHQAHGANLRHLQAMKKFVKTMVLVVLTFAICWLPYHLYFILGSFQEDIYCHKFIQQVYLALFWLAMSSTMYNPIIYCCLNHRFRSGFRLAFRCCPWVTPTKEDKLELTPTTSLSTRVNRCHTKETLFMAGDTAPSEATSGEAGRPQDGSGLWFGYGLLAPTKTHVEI

Row | SMILES | IC50 [1] | IC50 [2] | IC50 (Progesterone receptor) | IC50 (Cannabinoid receptor 1) | IC50 (Melanocortin receptor 3) | IC50 (Substance-K receptor) | IC50 (Progesterone receptor; read-out: IC50) [µM] | Ki (Progesterone receptor) [µM]
1 | O=c1ccc2ccccc2o1 [COUMARIN] | Not Active | Not Active | Not Active | Not Active | Not Active | Not Active | – | –
2 | C[C@@H]1C[C@@H]([C@H](O)CC2CC(=O)NC(=O)C2)C(=O)[C@@H](C)C1 [CYCLOHEXIMIDE] | Not Active | Not Active | Not Active | Not Active | Not Active | Not Active | – | –
3 | CN(C)/N=N/c1[nH]cnc1C(N)=O [DACARBAZINE] | Not Active | Not Active | Not Active | Not Active | Not Active | Not Active | – | –
4 | COc1ccc2c(c1)[C@]13CCCC[C@@H]1[C@H](C2)N(C)CC3 [DEXTROMETHORPHAN] | Not Active | Not Active | Not Active | Not Active | Not Active | Not Active | – | –
5 | CC(=O)Nc1c(I)c(NC(C)=O)c(I)c(C(=O)O)c1I [DIATRIZOIC ACID] | Not Active | Not Active | Not Active | Not Active | Not Active | Not Active | – | –
6 | COP(=O)(OC)OC=C(Cl)Cl [DICHLORVOS] | Not Active | Not Active | Not Active | Not Active | Not Active | Not Active | – | –
7 | O=C(O)Cc1ccccc1Nc1c(Cl)cccc1Cl [DICLOFENAC] | Not Active | Not Active | Not Active | Not Active | Not Active | Not Active | – | –
8 | C[C@H]1O[C@@H](O[C@H]2[C@@H](O)C[C@H](O[C@H]3[C@@H](O)C[C@H](O[C@H]4CC[C@@]5(C)[C@H](CC[C@@H]6[C@@H]5CC[C@]5(C)[C@@H](C7=CC(=O)OC7)CC[C@]65O)C4)O[C@@H]3C)O[C@@H]2C)C[C@H](O)[C@@H]1O [DIGITOXIN] | Not Active | Not Active | Not Active | Not Active | Not Active | Not Active | – | –
9 | CCN1CC(CCN2CCOCC2)C(c2ccccc2)(c2ccccc2)C1=O (configuration not stated) [DOXAPRAM] | Not Active | Not Active | Not Active | Not Active | Not Active | Not Active | – | –
10 | Cn1c(=O)c2c(ncn2CC2OCCO2)n(C)c1=O [DOXOFYLLINE] | Not Active | Not Active | Not Active | Not Active | Not Active | Not Active | – | –
11 | COc1cccc2c1C(=O)c1c(O)c3c(c(O)c1C2=O)C[C@@](O)(C(=O)CO)C[C@@H]3O[C@H]1C[C@H](N)[C@H](O)[C@H](C)O1 [DOXORUBICIN] | Not Active | Not Active | Not Active | Not Active | Not Active | Not Active | – | –
12 | COc1cccc2c1C(=O)c1c(O)c3c(c(O)c1C2=O)C[C@@](O)(C(=O)CO)C[C@@H]3O[C@H]1C[C@H](N)[C@@H](O)[C@H](C)O1 [EPIRUBICIN] | Not Active | Not Active | Not Active | Not Active | Not Active | Not Active | – | –
13 | C[C@]12CC[C@@H]3c4ccc(OC(=O)c5ccccc5)cc4CC[C@H]3[C@@H]1CC[C@@H]2O [ESTRADIOL BENZOATE] | Not Active | Not Active | – | Not Active | Not Active | Not Active | 9.61 | 1.25
14 | C[C@]12CC[C@@H]3c4ccc(O)cc4CC[C@H]3[C@@H]1CC[C@@H]2O [ESTRADIOL] | Not Active | Not Active | – | Not Active | Not Active | Not Active | 32.6 | 4.25
15 | CC[C@@H](CO)NCCN[C@@H](CC)CO [ETHAMBUTOL] | Not Active | Not Active | Not Active | Not Active | Not Active | Not Active | – | –
